The MIC is the lowest concentration that inhibits growth of the organism. A lower MIC goes with greater potency. In general, IC50 refers to the concentration needed to halve the response being measured.

The conditions of series [1]: cited from earlier work.
Series [2] deals with Escherichia coil 7440eco-641 (ESBLs). Kind of series: In vitro antibacterial activity on clinically separated CRE strain, agar dilution MIC. It counts as cell-based. The note with it: Table 3, 7440eco-641 Escherichia coil. The method in brief:
(§1)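 Agar dilution per CLSI M100-S23 (2013) against ATCC standard or clinically isolated CRE strains; MIC recorded in μg/mL.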
For orientation: Agar dilution tests growth on a series of plates holding different concentrations.

The subject of series [3] is Enterobacter cloacae 7498ecl-299 (ESBLs, AmpC). Described as above. It counts as cell-based. The note with it: Table 3, 7498ecl-299 Enterobacter cloacae. The method in brief:
as §1

For series [4], the system named is Citrobacter freundii 7520cfr-167 (NDM, OXA-10, ESBLs). The description is as above. It counts as cell-based. The note with it: Table 3, 7520cfr-167 Citrobacter freundii. The method in brief:
as §1

Series [5] has as its system Citrobacter freundii 7521cfr-169 (NDM, ESBLs, AmpC). The series is described as above. It counts as cell-based. The conditions noted are these: Table 3, 7521cfr-169 Citrobacter freundii. An outline of the steps: as §1
The test system of series [6] is Klebsiella pneumoniae 7484kpn-631 (IMP, ESBLs). Described as above. The format is cell-based. The method in brief:
as §1

Series [7] relates to Klebsiella pneumoniae 7450kpn-597 (KPC, ESBLs). The series is described as above. It counts as cell-based. The note with it: Table 3, 7450kpn-597 Klebsiella pneumoniae. An outline of the steps:
as §1

In series [8] the test system is Enterobacter cloacae 7494ecl-295 (NDM, ESBLs, AmpC). The description is as above. The conditions noted are these: Table 3, 7494ecl-295 Enterobacter cloacae. The format is cell-based. The method in brief:
as §1

Series [9] deals with Klebsiella pneumoniae 7460kpn-607 (NDM, ESBLs). The description is as above. The conditions noted are these: Table 3, 7460kpn-607 Klebsiella pneumoniae. It counts as cell-based. The method in brief: as §1
Series [10] has as its system Klebsiella pneumoniae 7463kpn-610 (ESBLs). The description is as above. It counts as cell-based. An outline of the steps:
as §1

Series [11] concerns Escherichia coli 7438eco-639 (NDM, ESBLs). The description is as above. It counts as cell-based. The conditions noted are these: Table 3, 7438eco-639 Escherichia coli. An outline of the steps: as §1
The test system of series [12] is Klebsiella pneumoniae 7526kpn-640 (KPC, ESBLs). Described as above. The format is cell-based. The note with it: Table 3, 7526kpn-640 Klebsiella pneumoniae. The method in brief: as §1
In a further series the target is T1, OXA-10 (Pseudomonas aeruginosa, UniProt P14489).
T1 construct: purchased
Kind of series: β-lactamase inhibition, Nitrocefin hydrolysis. It counts as biochemical. The note with it: Experiment 3; enzyme 10 nM, Nitrocefin 0.1 mM; read-out: IC50 Type D OXA-10. An outline of the steps:
(§2)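 Nitrocefin hydrolysis by each β-lactamase was followed as real-time absorbance, with the enzyme stock diluted 1000-fold in reaction solution. Inhibitors were tested at final concentrations from 100 μM down to 0.095 nM in four-fold steps. IC50 was calculated from the hydrolysis rates across inhibitor concentrations.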

In the next series the target is T2, TEM-1 (Escherichia coli, UniProt P62593).
T2 construct: purchased
Kind of series: β-lactamase inhibition, Nitrocefin hydrolysis. It counts as biochemical. The conditions noted are these: Nitrocefin 0.1 mM. The method in brief: as §2

A further series addresses T3, KPC-2 (Klebsiella pneumoniae, UniProt Q9F663).
T3 construct: purchased
Kind of series: β-lactamase inhibition, Nitrocefin hydrolysis. It counts as biochemical. The note with it: Nitrocefin 0.1 mM. The method in brief: as §2

A further series deals with T4, CTX-M-1 (Escherichia coli, UniProt P28585).
T4 construct: purchased
Kind of series: β-lactamase inhibition, Nitrocefin hydrolysis. It counts as biochemical. The note with it: Experiment 2; enzyme 0.2 nM, Nitrocefin 0.1 mM. An outline of the steps: as §2

[13] abbreviates: Table 3, 7484kpn-631 Klebsiella pneumoniae.
Setting [14] is: Table 3, 7463kpn-610 Klebsiella pneumoniae.

Structures can show the parent of a compound that is named as a salt. Where two headings read alike, the source gives them in different places. Some results are limits rather than exact numbers.

T2 sequence (P62593 24-286 limits assumed): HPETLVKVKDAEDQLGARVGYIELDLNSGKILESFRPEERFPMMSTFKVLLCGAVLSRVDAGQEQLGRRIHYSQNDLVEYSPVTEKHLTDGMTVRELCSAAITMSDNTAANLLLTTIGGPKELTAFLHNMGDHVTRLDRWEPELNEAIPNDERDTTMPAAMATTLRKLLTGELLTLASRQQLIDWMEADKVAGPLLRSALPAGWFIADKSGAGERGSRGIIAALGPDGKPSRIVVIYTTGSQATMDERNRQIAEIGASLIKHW
T1 sequence (P14489 20-266, species assumed): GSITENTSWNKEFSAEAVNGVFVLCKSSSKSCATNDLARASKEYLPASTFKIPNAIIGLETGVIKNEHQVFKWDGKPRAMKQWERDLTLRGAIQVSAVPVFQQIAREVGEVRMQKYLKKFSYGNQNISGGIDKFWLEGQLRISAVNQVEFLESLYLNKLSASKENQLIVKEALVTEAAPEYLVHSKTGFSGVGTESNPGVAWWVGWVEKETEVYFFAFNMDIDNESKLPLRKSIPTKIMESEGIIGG
T3 sequence (Q9F663 25-293, looked up, species assumed): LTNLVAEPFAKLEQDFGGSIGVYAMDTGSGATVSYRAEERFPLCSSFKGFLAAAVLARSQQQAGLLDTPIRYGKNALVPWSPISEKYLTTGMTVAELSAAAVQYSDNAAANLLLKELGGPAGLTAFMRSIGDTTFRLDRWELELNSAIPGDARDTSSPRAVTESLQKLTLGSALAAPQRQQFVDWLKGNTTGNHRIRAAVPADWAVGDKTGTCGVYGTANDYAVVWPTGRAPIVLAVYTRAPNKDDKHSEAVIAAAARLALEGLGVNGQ
T4 sequence (P28585 29-291): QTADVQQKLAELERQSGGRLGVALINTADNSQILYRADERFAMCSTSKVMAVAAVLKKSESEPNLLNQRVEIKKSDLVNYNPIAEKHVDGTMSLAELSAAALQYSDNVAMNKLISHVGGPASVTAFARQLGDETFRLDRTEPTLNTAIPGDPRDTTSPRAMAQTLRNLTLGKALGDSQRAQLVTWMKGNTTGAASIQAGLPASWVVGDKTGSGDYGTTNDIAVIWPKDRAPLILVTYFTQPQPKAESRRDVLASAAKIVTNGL

For the compound `O=C(NC1CCNCC1)[C@@H]1CC[C@@H]2CN1C(=O)N2OS(=O)(=O)O` [MK-7655, reference compound], the T1/2 in clinic in series [1] is 1.7 h. Moreover, the MIC in series [2], in [3], in series [4], in [5], in series [6] (setting [13]) and in series [7] was above 8 µg/mL each time. For the same compound, the MIC in series [8], in series [9], in [10] (setting [14]), in [11] and in series [12] was above 8 µg/mL each time.

As to `NC(=O)[C@@H]1CC[C@@H]2CN1C(=O)N2OS(=O)(=O)O` [AVI sodium salt, Avibactam, reference compound], the MIC is 8 µg/mL in [2]; above 8 µg/mL in [3]; above 8 µg/mL in series [4]; 8 µg/mL in series [5]; above 8 µg/mL in series [6] (setting [13]); 16 µg/mL in [6] (first Table 4, 7484kpn-631 Klebsiella pneumoniae). The MIC in [7] is above 8 µg/mL; in [8], above 8 µg/mL; in [9], above 8 µg/mL; in series [10] (setting [14]) it was 8 µg/mL; in series [10] (first Table 4, 7463kpn-610 Klebsiella pneumoniae), 32 µg/mL; in series [11], 8 µg/mL. The compound also came in with an MIC in [12] above 8 µg/mL. Also, the IC50 on OXA-10 was 25900 nM.

Regarding `O=C(NC1CC2(CNC2)C1)[C@@H]1CC[C@@H]2CN1C(=O)N2OS(=O)(=O)O` [Compound 2, (2S,5R)-2-((2-azaspiro[3.3]heptan-6-yl)carbamoyl)-7-oxo-1,6-diazabicyclo[3.2.1]octan-6-yl hydrogen sulfate], the MIC in series [2], in [3], in series [4], in [5], in series [6] (setting [13]) and in series [7] was 2 µg/mL in each case. Also, the MIC in series [8] came to 2 µg/mL; in [9], 2 µg/mL; in series [10] (setting [14]) it was 2 µg/mL; in series [11], 2 µg/mL; in series [12] it was 4 µg/mL. Also, the IC50 at TEM-1 (Experiment 1, enzyme 0.25 nM, read-out: IC50 ESBLs type TEM-1) was 28.5 nM; on TEM-1 (Experiment 2, enzyme 1 nM, read-out: IC50 TEM-1), 15.2 nM; at OXA-10, 12200 nM; on KPC-2 (Experiment 1, read-out: IC50 Type A KPC-2), 61.1 nM; at KPC-2 (Experiment 2, enzyme 1.28 nM, read-out: IC50 KPC-2) it was 34.7 nM; at CTX-M-1, 42.3 nM.
